Columns and labels:
[1] = system: CTG repeat in the 3′ UTR of human DMPK gene; test: Dual-cut screening: CTG repeat excision efficiency by loss-of-signal ddPCR; assay type: cell-based; conditions: sgRNA pair, primary DM1 patient myoblasts; for Excision efficiency (by ddPCR): 3 μM DNA-PKi Compound 6 for 48 hours; for Excision efficiency by ddPCR (Vehicle): vehicle (DMSO)
Outline: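 Upstream and downstream SluCas9 RNPs (20 pmol protein, 60 pmol sgRNA each) mixed 1:1 and nucleofected into primary DM1 patient myoblasts, then treated 48 h with DMSO or 3 μM DNA-PKi Compound 6. Genomic DNA taken 72 h post-nucleofection; excision read as loss of target signal by ddPCR versus a DMPK exon 1 reference.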

[2] = system: CUG foci in primary DM1 patient myoblasts; test: Dual-cut screening: FISH staining of CUG RNA foci; assay type: cell-based, human; conditions: sgRNA pair, primary DM1 patient myoblasts; for % of CUG foci free nuclei (DNA-PKi): 3 μM DNA-PKi Compound 6 for 48 hours; for % of CUG foci free nuclei (Vehicle): vehicle (DMSO)
Outline: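 SluCas9 RNPs (protein:sgRNA 1:3; 20 pmol SluCas9 + 60 pmol sgRNA per guide, paired 1:1) nucleofected into primary DM1 patient myoblasts, then DMSO or 3 μM DNA-PKi Compound 6 for 48 h. At 72 h post-nucleofection cells fixed, FISH-stained with Cy3-PNA(CAG)5 probe plus anti-MBNL1 and Hoechst; % CUG foci-free nuclei by high-content confocal imaging.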

Row | Substance | Excision efficiency (by ddPCR) [1] | Excision efficiency by ddPCR (Vehicle) [1] | % of CUG foci free nuclei (DNA-PKi) [2] | % of CUG foci free nuclei (Vehicle) [2]
1 | SluU08 + SluD14 (guide 1 GCCCCGTTGGAAGACTGAGTGC; guide 2 ATGGGCAAACTGCAGGCCTGGG; guide RNA; listed as DNA, chemistry not fully specified) | 63.05 | 45.12 | 82.09% | 56.37%
2 | SluU06 + SluD73 (guide 1 TGTCTTCGACTCCGGGGCCCCG; guide 2 CCAAAACGTGGATTGGGGTTGT; guide RNA; listed as DNA, chemistry not fully specified) | 63.29 | 43.4 | 88.37% | 65.15%
3 | SluU06 + SluD68 (guide 1 TGTCTTCGACTCCGGGGCCCCG; guide 2 CCTGTAGCCTGTCAGCGAGTCG; guide RNA; listed as DNA, chemistry not fully specified) | 62.99 | 47.38 | 89.4% | 64.01%
4 | SluU08 + SluD73 (guide 1 GCCCCGTTGGAAGACTGAGTGC; guide 2 CCAAAACGTGGATTGGGGTTGT; guide RNA; listed as DNA, chemistry not fully specified) | 67.61 | 50.12 | 89.94% | 65.42%
5 | SluU64 + SluD56 (guide 1 GGGCTCGAAGGGTCCTTGTAGC; guide 2 CCAGCCGGCTCCGCCCGCTTCG; guide RNA; listed as DNA, chemistry not fully specified) | 67.76 | 42.14 | 87.6% | 60.36%
6 | SluU64 + SluD32 (guide 1 GGGCTCGAAGGGTCCTTGTAGC; guide 2 CTTGTGCATGACGCCCTGCTCT; guide RNA; listed as DNA, chemistry not fully specified) | 85.56 | 60.75 | 89.99% | 77.6%
7 | SluU63 + SluD73 (guide 1 GGGGCTCGAAGGGTCCTTGTAG; guide 2 CCAAAACGTGGATTGGGGTTGT; guide RNA; listed as DNA, chemistry not fully specified) | 95.51 | 63.27 | 90.58% | 70.03%
8 | SluU59 + SluD32 (guide 1 CGCGGCCGGCGAACGGGGCTCG; guide 2 CTTGTGCATGACGCCCTGCTCT; guide RNA; listed as DNA, chemistry not fully specified) | 83.32 | 57.23 | 91.19% | 69.23%
9 | SluU06 + SluD83 (guide 1 TGTCTTCGACTCCGGGGCCCCG; guide 2 GTGGGGACAGACAATAAATACC; guide RNA; listed as DNA, chemistry not fully specified) | 66.18 | 46.13 | 89.45% | 66.03%
10 | SluU59 + SluD83 (guide 1 CGCGGCCGGCGAACGGGGCTCG; guide 2 GTGGGGACAGACAATAAATACC; guide RNA; listed as DNA, chemistry not fully specified) | 64.95 | 49.18 | 90.49% | 64.61%
11 | SluU10 + SluD48 (guide 1 CCCGTTGGAAGACTGAGTGCCC; guide 2 GAGAGCAGCGCAAGTGAGGAGG; guide RNA; listed as DNA, chemistry not fully specified) | 62.29 | 44.14 | 88.02% | 69.11%
12 | SluU64 + SluD100 (guide 1 GGGCTCGAAGGGTCCTTGTAGC; guide 2 GTCCAGAGCTTTGGGCAGATGG; guide RNA; listed as DNA, chemistry not fully specified) | 68.22 | 45.16 | 85.89% | 69.88%
13 | SluU10 + SluD100 (guide 1 CCCGTTGGAAGACTGAGTGCCC; guide 2 GTCCAGAGCTTTGGGCAGATGG; guide RNA; listed as DNA, chemistry not fully specified) | 64.25 | 44.65 | 88.24% | 67.81%
14 | SluU59 + SluD73 (guide 1 CGCGGCCGGCGAACGGGGCTCG; guide 2 CCAAAACGTGGATTGGGGTTGT; guide RNA; listed as DNA, chemistry not fully specified) | 64.95 | 42.14 | 87.85% | 59.22%
15 | SluU63 + SluD56 (guide 1 GGGGCTCGAAGGGTCCTTGTAG; guide 2 CCAGCCGGCTCCGCCCGCTTCG; guide RNA; listed as DNA, chemistry not fully specified) | 90.05 | 50.69 | 88.12% | 60.91%
16 | SluU59 + SluD48 (guide 1 CGCGGCCGGCGAACGGGGCTCG; guide 2 GAGAGCAGCGCAAGTGAGGAGG; guide RNA; listed as DNA, chemistry not fully specified) | 65.89 | 47.17 | 87.28% | 62.15%

— patent US20240173432A1, “Compositions and Methods for Treatment of Myotonic Dystrophy Type 1 with CRISPR/SluCas9” (Vertex Pharmaceuticals Incorporated, priority 2021, published 2024)
